How the values were obtained:
[1] = system: barnyardgrass (Echinochloa crus-galli); experiment: Test A preemergence, visual injury rating 0-100 (0 no effect, 100 complete control); type: in vivo; details: for Barnyardgrass plant response rating (0 to 100 scale): 125 g ai/ha; for Barnyardgrass plant response rating: 500 g ai/ha, 0 to 100 scale
rice (Oryza sativa) = experiment: Test B flooded paddy test, visual rating 0-100 (0 no effect, 100 complete control); details: Flood, 250 g ai/ha, applied to paddy water, rated after 13 to 15 days
[2] = system: barnyardgrass (Echinochloa crus-galli); experiment: Test B flooded paddy test, visual rating 0-100; details: Flood, 250 g ai/ha, applied to paddy water, rated after 13 to 15 days
[3] = system: ducksalad (Heteranthera limosa); experiment: Test B flooded paddy test, visual rating 0-100; details: Flood, 250 g ai/ha, applied to paddy water, rated after 13 to 15 days
[4] = system: ragweed (common ragweed, Ambrosia elatior); experiment: Test A preemergence, visual injury rating 0-100; type: in vivo; details: for Ragweed plant response rating: 0 to 100 scale
kochia (Kochia scoparia) [5] = experiment: Test A preemergence, visual injury rating 0-100; type: in vivo; details: for Kochia plant response rating: 0 to 100 scale
[6] = system: foxtail, green (green foxtail, Setaria viridis); experiment: Test A preemergence, visual injury rating 0-100; type: in vivo; details: for Foxtail, Green plant response rating: 0 to 100 scale
[7] = system: pigweed (Amaranthus retroflexus); experiment: Test A preemergence, visual injury rating 0-100; type: in vivo; details: for Pigweed plant response rating: 0 to 100 scale
[8] = system: ryegrass, Italian (Italian ryegrass, Lolium multiflorum); experiment: Test A preemergence, visual injury rating 0-100; type: in vivo; details: for Ryegrass, Italian plant response rating: 0 to 100 scale
[9] = system: ragweed (common ragweed, Ambrosia elatior); experiment: Test A postemergence, visual injury rating 0-100; type: in vivo; details: 0 to 100 scale
kochia (Kochia scoparia) [10] = experiment: Test A postemergence, visual injury rating 0-100; type: in vivo; details: 0 to 100 scale
[11] = system: blackgrass (Alopecurus myosuroides); experiment: Test A postemergence, visual injury rating 0-100; type: in vivo; details: 0 to 100 scale
[12] = system: galium (catchweed bedstraw, Galium aparine); experiment: Test A postemergence, visual injury rating 0-100; type: in vivo; details: 0 to 100 scale
corn (Zea mays) = experiment: Test A postemergence, visual injury rating 0-100; type: in vivo; details: 0 to 100 scale
[13] = system: barnyardgrass (Echinochloa crus-galli); experiment: Test A postemergence, visual injury rating 0-100; type: in vivo; details: 0 to 100 scale
[14] = system: wheat (Triticum aestivum); experiment: Test A postemergence, visual injury rating 0-100; type: in vivo; details: 0 to 100 scale
[15] = system: foxtail, green (green foxtail, Setaria viridis); experiment: Test A postemergence, visual injury rating 0-100; type: in vivo; details: 0 to 100 scale
[16] = system: pigweed (Amaranthus retroflexus); experiment: Test A postemergence, visual injury rating 0-100; type: in vivo; details: 0 to 100 scale
[17] = system: ryegrass, Italian (Italian ryegrass, Lolium multiflorum); experiment: Test A postemergence, visual injury rating 0-100; type: in vivo; details: 0 to 100 scale

Structure (SMILES)	Barnyardgrass plant response rating (0 to 100 scale) [1]	Barnyardgrass plant response rating [1]	Rice plant response rating (0 to 100 scale) (rice (Oryza sativa))	Barnyardgrass plant response rating (0 to 100 scale) [2]	Ducksalad plant response rating (0 to 100 scale) [3]	Ragweed plant response rating (0 to 100 scale) ([4]; 125 g ai/ha)	Kochia plant response rating (0 to 100 scale) (kochia (Kochia scoparia) [5]; 125 g ai/ha)	Foxtail, Green plant response rating (0 to 100 scale) ([6]; 125 g ai/ha)	Pigweed plant response rating (0 to 100 scale) ([7]; 125 g ai/ha)	Ryegrass, Italian plant response rating (0 to 100 scale) ([8]; 125 g ai/ha)	Ragweed plant response rating ([9]; 125 g ai/ha)	Ragweed plant response rating ([9]; 500 g ai/ha)	Kochia plant response rating (kochia (Kochia scoparia) [10]; 125 g ai/ha)	Kochia plant response rating (kochia (Kochia scoparia) [10]; 500 g ai/ha)	Blackgrass plant response rating ([11]; 125 g ai/ha)	Blackgrass plant response rating ([11]; 500 g ai/ha)	Galium plant response rating ([12]; 125 g ai/ha)	Galium plant response rating ([12]; 500 g ai/ha)	Corn plant response rating (corn (Zea mays); 125 g ai/ha)	Corn plant response rating (corn (Zea mays); 500 g ai/ha)	further results
CC1=[N+]([O-])C(C(=O)Nc2cccc(F)c2F)C(c2ccccc2F)C1 (racemic) [Compound 21]	10	90	0	40	80	0	0	20	0	0	0	0	0	0	0	20	0	0	0	20	Ragweed plant response rating ([4]; 500 g ai/ha): 0; Kochia plant response rating (kochia (Kochia scoparia) [5]; 500 g ai/ha): 40; Foxtail, Green plant response rating ([6]; 500 g ai/ha): 90; Pigweed plant response rating ([7]; 500 g ai/ha): 0; Ryegrass, Italian plant response rating ([8]; 500 g ai/ha): 0; Barnyardgrass plant response rating ([13]; 125 g ai/ha): 0; Barnyardgrass plant response rating ([13]; 500 g ai/ha): 50; Wheat plant response rating ([14]; 125 g ai/ha): 0; Wheat plant response rating ([14]; 500 g ai/ha): 0; Foxtail, Green plant response rating ([15]; 125 g ai/ha): 0; Foxtail, Green plant response rating ([15]; 500 g ai/ha): 20; Pigweed plant response rating ([16]; 125 g ai/ha): 0; Pigweed plant response rating ([16]; 500 g ai/ha): 0; Ryegrass, Italian plant response rating ([17]; 125 g ai/ha): 0; Ryegrass, Italian plant response rating ([17]; 500 g ai/ha): 0
CC1=[N+]([O-])C(C(=O)Nc2cccc(C#N)c2F)C(c2ccc(C(F)(F)F)cc2)C1 (racemic) [Compound 28]	80	100	0	30	0	80	0	90	90	20	0	70	0	20	0	40	70	70	0	0	Ragweed plant response rating ([4]; 500 g ai/ha): 100; Kochia plant response rating (kochia (Kochia scoparia) [5]; 500 g ai/ha): 70; Foxtail, Green plant response rating ([6]; 500 g ai/ha): 100; Pigweed plant response rating ([7]; 500 g ai/ha): 100; Ryegrass, Italian plant response rating ([8]; 500 g ai/ha): 20; Barnyardgrass plant response rating ([13]; 125 g ai/ha): 20; Barnyardgrass plant response rating ([13]; 500 g ai/ha): 90; Wheat plant response rating ([14]; 125 g ai/ha): 0; Wheat plant response rating ([14]; 500 g ai/ha): 0; Foxtail, Green plant response rating ([15]; 125 g ai/ha): 30; Foxtail, Green plant response rating ([15]; 500 g ai/ha): 90; Pigweed plant response rating ([16]; 125 g ai/ha): 0; Pigweed plant response rating ([16]; 500 g ai/ha): 70; Ryegrass, Italian plant response rating ([17]; 125 g ai/ha): 0; Ryegrass, Italian plant response rating ([17]; 500 g ai/ha): 20
CSc1ccccc1NC(=O)C1C(c2ccc(C(F)(F)F)cc2)CC(C)=[N+]1[O-] (racemic) [Compound 29]	0	80	0	0	0	20	0	20	10	0	0	60	0	0	20	30	40	60	0	0	Ragweed plant response rating ([4]; 500 g ai/ha): 100; Kochia plant response rating (kochia (Kochia scoparia) [5]; 500 g ai/ha): 20; Foxtail, Green plant response rating ([6]; 500 g ai/ha): 100; Pigweed plant response rating ([7]; 500 g ai/ha): 90; Ryegrass, Italian plant response rating ([8]; 500 g ai/ha): 20; Barnyardgrass plant response rating ([13]; 125 g ai/ha): 10; Barnyardgrass plant response rating ([13]; 500 g ai/ha): 30; Wheat plant response rating ([14]; 125 g ai/ha): 0; Wheat plant response rating ([14]; 500 g ai/ha): 0; Foxtail, Green plant response rating ([15]; 125 g ai/ha): 20; Foxtail, Green plant response rating ([15]; 500 g ai/ha): 50; Pigweed plant response rating ([16]; 125 g ai/ha): 10; Pigweed plant response rating ([16]; 500 g ai/ha): 30; Ryegrass, Italian plant response rating ([17]; 125 g ai/ha): 0; Ryegrass, Italian plant response rating ([17]; 500 g ai/ha): 0
CC1=[N+]([O-])C(C(=O)Nc2ccccc2C#N)C(c2ccc(C(F)(F)F)cc2)C1 (racemic) [Compound 32]	0	100	0	0	0	70	0	10	0	10	0	20	0	20	0	20	70	80	10	50	Ragweed plant response rating (0 to 100 scale) ([4]; 500 g ai/ha): 100; Kochia plant response rating (0 to 100 scale) (kochia (Kochia scoparia) [5]; 500 g ai/ha): 70; Foxtail, Green plant response rating (0 to 100 scale) ([6]; 500 g ai/ha): 100; Pigweed plant response rating (0 to 100 scale) ([7]; 500 g ai/ha): 80; Ryegrass, Italian plant response rating (0 to 100 scale) ([8]; 500 g ai/ha): 10; Barnyardgrass plant response rating ([13]; 125 g ai/ha): 20; Barnyardgrass plant response rating ([13]; 500 g ai/ha): 40; Wheat plant response rating ([14]; 125 g ai/ha): 0; Wheat plant response rating ([14]; 500 g ai/ha): 0; Foxtail, Green plant response rating ([15]; 125 g ai/ha): 20; Foxtail, Green plant response rating ([15]; 500 g ai/ha): 50; Pigweed plant response rating ([16]; 125 g ai/ha): 0; Pigweed plant response rating ([16]; 500 g ai/ha): 20; Ryegrass, Italian plant response rating ([17]; 125 g ai/ha): 0; Ryegrass, Italian plant response rating ([17]; 500 g ai/ha): 0

Reference: patent publication US11498899B2, “Nitrone herbicides” (FMC Corporation, priority 2016, dated 2022)
